Reference: EP2476410A1, “An analgesic peptide-containing composition for transbuccal administration” (priority 2011, dated 2012)
Like-named read-outs stand apart in the source and are kept apart here. Where a SMILES comes first, the peptide text is derived from it.

Assays:
rats [1] = experiment: Elevated-plus maze test; assay type: in vivo; conditions: 1 or 50 mg/kg, 30 min or 3 h post-dose, compared to saline
Source text: The Elevated-Plus Maze Test is generally used to assess anxiety level of rodents due to their natural aversion for height. Two opposite arms of the elevated-plus maze are enclosed by high walls (closed arms) while the other two are not (open arms). The test animals (rats) naturally prefer and spend more time in the closed arms.

Swiss albino mice [2] = experiment: Toxicity, multiple dose regimen, once daily for 14 days; assay type: in vivo; conditions: for Appearance / Body Weight Day 1 / Body Weight Day 14 / Death: Intraperitoneal, daily
Protocol: Swiss albino mice were administered with the peptide at 8 mg/kg or 80 mg/kg (intraperitoneal) once daily for 14 days. Control mice received saline. At the end of the period, all mice were killed, dissected and observed for any obvious abnormality. Weights of the major organs, including brain, heart, lung, liver, spleen and kidney, were recorded.

Swiss albino mice [3] = experiment: GI motility (charcoal transit distance); assay type: in vivo; conditions: 5 mg/kg and 50 mg/kg intraperitoneal, 30 min post-drug
Protocol: Swiss albino mice (30-35 g) were injected with saline, the peptide (5 mg/kg, 50 mg/kg intraperitoneal) or morphine (0.5 mg/kg, 5 mg/kg, 50 mg/kg intraperitoneal). The experimenters are blind to the identity of the solutions. All mice were administered 5 mg charcoal (0.1 ml of 50 mg/ml charcoal solution) via oral gavage immediately after drug administration. At 30 min post- drug / charcoal administration, the mice were sacrificed by cervical dislocation and the GI tract was exposed and the location of the charcoal identified. The distance the charcoal traveled in the intestine from the stomach was measured and expressed as % of total length of the GI tract.

Sprague-Dawley rats = experiment: Acute effect on blood pressure, heart rate and respiration rate in anesthetized rats; assay type: in vivo; conditions: 5 and 20 mg/kg
Protocol: Sprague-Dawley rats (∼300 g) were anesthetized and the carotid artery was cannulated for blood pressure measurement. Drugs were administered by the pre-determined route. A pulse transducer was secured across the thoracic region of the rat to allow measurement of respiration rate. Blood pressure was recorded for at least 15 min or until a relatively stable blood pressure was observed.

Swiss albino mice [4] = experiment: Spontaneous locomotor activity; assay type: in vivo; conditions: 5 or 50 mg/kg, within 4 h of drug administration, compared to control
Protocol: Swiss albino mice (∼30 - 40 g) were first placed into their respective chambers with a 20 min pre-treatment recording. Only mice showing at least 50 counts / 5 min are used in the experiments. Mice were administered saline (control), peptide (5 or 50 mg/kg) or morphine (50 mg/kg). Experimenters were blind to the identity of the drug solutions. After drug administration, the animals were placed into their individual chambers and their spontaneous locomotor activity was recorded by video tracking and the data were recorded for a period of 4 h. Statistical comparison was done by 2-way ANOVA.

rats [5] = experiment: Open-field test (anxiety score); assay type: in vivo; conditions: intraperitoneally, 1 or 50 mg/kg, compared to saline control
Source text: The open field test is generally used to assess anxiety level of rodents due to their natural aversion of open space and thus their preference to stay near the side rather than venturing to the more open central part of the open field.
The open field was divided into 16 equal size squares (25 x 25 cm). The 4 squares at the centre are assigned a low anxiety score (0) while those at the 4 corners are assigned a high anxiety score (2). The remaining 8 squares are assigned a medium score (1). A rat entering each square will be given the score assigned to that square. The sum total obtained within the 5-min test period divided by the number of squares entered is the anxiety score for that rat. Diazepam was used as positive control. Statistical comparison was done by Student's t-test.

mice = experiment: Acute high dose toxicity (oral and intravenous); assay type: in vivo
Protocol: Acute toxicity was determined by both oral and intravenous administration of the peptide. Three mice were given a dose of peptide at 2 g/kg orally by gavage, 5 ml/kg.

Swiss albino mice [6] = experiment: Toxicity, single dose regimen, 14 days observation; assay type: in vivo; conditions: for Appearance / Body Weight Day 1 / Body Weight Day 14 / Death: intraperitoneal, single dose
Protocol: Swiss albino mice were administered with the peptide at 8 mg/kg or 80 mg/kg (intraperitoneal) on day 1 and then observed for 14 days. Control mice received saline.
At the end of the period, all mice were sacrificed, dissected and observed for any obvious abnormality. Weights of the major organs, including brain, heart, lung, liver, spleen and kidney, were recorded.

Swiss albino mice [7] = experiment: Rotarod test; assay type: in vivo; conditions: 1 or 10 mg/kg, sublingual; 1h, 2h and 3h post dose
Protocol: Swiss albino mice (∼20-30 g) were first trained on the rotarod, which accelerated from 0-20 rpm over 5 min, prior to the experiment. Only mice that were capable of staying on the rotarod for the entire 5 min period were used in this experiment. Mice were either administered with the peptide (1 or 10 mg/kg, sublingual), or morphine (20 mg/kg, subcutaneous). After drug administration, the animals are placed on the rotarod and the time taken for the mice to slip was recorded (up to 5 min), and subsequently at 1h, 2h and 3h post peptide, and at 30 min, 1h30 min and 2h30 min post morphine. Statistical comparison was done by either Student's t-test or one-way ANOVA.

[8] = Pharmacokinetics: plasma concentration and bioavailability by route (LC/MS/MS); assay type: in vivo, mice; conditions: for bioavailability: AUC compared to intravenous route
Protocol: The peptide (1, 5, 15 and 25 mg/kg, 0.5 ml/kg) was administered sublingually to mice. Upon reaching specified time points of 1, 5, 15, 30, 60 and 120 min post-dose, each mouse was sacrificed and blood samples were collected via cardiac puncture. Plasma samples were then extracted and analyzed under LC/MS/MS. Systemic exposure of the peptide was also studied through intravenous, oral (gavage) and intraperitoneal routes.

[9] = 125 mg/kg, intravenous, only the 5 mice that survived

Q: Which results are given for `C[C@@H](O)[C@H](NC(=O)[C@@H]1CCCN1C(=O)[C@H](Cc1ccccc1)NC(=O)[C@@H]1CCCN1C(=O)[C@@H](N)CC(N)=O)C(=O)N[C@@H](Cc1c[nH]c2ccccc12)C(=O)N[C@@H](CCCNC(=N)N)C(=O)N[C@@H](CCCCN)C(=O)N[C@@H](CCCNC(=N)N)C(=O)N1CCC[C@H]1C(=O)NCC(=O)O` [the peptide, NPFPTWRKRPG] (H-NPFPTWRKRPG-OH)?
A: time spent in the open or closed arms (rats [1]): did not produce any significant changes; Appearance (Swiss albino mice [2]; 8 mg/kg): normal; Body Weight Day 1 (Swiss albino mice [2]; 8 mg/kg): 21.4 ± 0.8 g; Body Weight Day 14 (Swiss albino mice [2]; 8 mg/kg): 30.0 ± 0.4 g; Death (Swiss albino mice [2]; 8 mg/kg): nil; Death (Swiss albino mice [2]; 8 mg/kg, listed as peptide): death of one mouse; Appearance (Swiss albino mice [2]; 80 mg/kg): normal; Body Weight Day 1 (Swiss albino mice [2]; 80 mg/kg): 21.3 ± 0.5 g; Body Weight Day 14 (Swiss albino mice [2]; 80 mg/kg): 28.1 ± 1.2 g; Death (Swiss albino mice [2]; 80 mg/kg): Nil; organ appearance and weights (Swiss albino mice [2]; 8 or 80 mg/kg intraperitoneal once daily for 14 days): All organs appeared normal and no differences in weight were observed; obvious toxicity (Swiss albino mice [2]; multiple high doses up to 80 mg/kg for 14 days): did not cause any obvious toxicity; GI transit distance (Swiss albino mice [3]): did not show any significant reduction; GI transit distance (Swiss albino mice [3]; listed as The peptide): does not show any significant effect; blood pressure (Sprague-Dawley rats; intravenous route): dose dependent drop; blood pressure (Sprague-Dawley rats; intravenous route, listed as Peptide): decreased in blood pressure; blood pressure (Sprague-Dawley rats; sublingual or intraperitoneal routes): no change in blood pressure; blood pressure (Sprague-Dawley rats; sublingual or intraperitoneal routes, listed as peptide): did not cause any changes in blood pressure; locomotive activities (Swiss albino mice [4]): no significant difference; anxiety scores (rats [5]): did not show any effect on the anxiety scores; Body Weight (g, 2 weeks postdose) (mice; 62.5 mg/kg, intravenous): 34.7 ± 1.5 g; Body Weight (g, predose) (mice; 62.5 mg/kg, intravenous): 30.0 ± 1.0 g; behaviour after administration (mice; 62.5 mg/kg, intravenous): appeared sedated after peptide but recovered after several hours; mice that died (mice; 125 mg/kg intravenous): four out of nine; time to death (mice; 125 mg/kg intravenous): 5 to 10 min; behaviour of surviving mice (mice; 125 mg/kg intravenous, five surviving mice): appeared heavily sedated for several hours; Body Weight (g, 2 weeks postdose) (mice; [9]): 33.6 ± 1.5 g; Body Weight (g, predose) (mice; [9]): 28.6 ± 1.3 g; behaviour after administration (mice; 2 g/kg oral by gavage): appeared sedated with much decreased activity; time to recovery from sedation (mice; 2 g/kg oral, listed as peptide): about 1 h; Body Weight (g, 2 weeks postdose) (mice; 2g/kg, oral): 33.0 ± 1.7 g; Body Weight (g, predose) (mice; 2g/kg, oral): 29.3 ± 1.5 g; time to recovery from sedation (mice; 2g/kg, oral): ≤ 1 h; LD50 (mice; administered intravenously, mice): about 125 mg/kg; Appearance (Swiss albino mice [6]; 8 mg/kg): normal; Body Weight Day 1 (Swiss albino mice [6]; 8 mg/kg): 26.2 ± 0.4 g; Body Weight Day 14 (Swiss albino mice [6]; 8 mg/kg): 31.7 ± 0.5 g; Death (Swiss albino mice [6]; 8 mg/kg): nil; Appearance (Swiss albino mice [6]; 80 mg/kg): normal; Body Weight Day 1 (Swiss albino mice [6]; 80 mg/kg): 25.8 ± 0.6 g; Body Weight Day 14 (Swiss albino mice [6]; 80 mg/kg): 31.1 ± 0.7 g; Death (Swiss albino mice [6]; 80 mg/kg): Nil; organ appearance and weights (Swiss albino mice [6]; single dose 8 or 80 mg/kg intraperitoneal, day 14): All organs appeared normal and no differences in weight were observed; obvious toxicity (Swiss albino mice [6]; single high dose up to 80 mg/kg): did not cause any obvious toxicity; rotarod performance (time to slip) (Swiss albino mice [7]): No statistical significant effects; plasma concentration ([8]; 1 hour after administration, other routes of administration): approximately undetectable; bioavailability ([8]; intraperitoneal route): 0.5%; level at 1 h ([8]; mouse, plasma, 25 mg/kg, 1 hour after administration, sublingual route): > 100 ng/mL; bioavailability ([8]; mouse, plasma, ip, intraperitoneal route, read-out: bioavailability): 0.5%; bioavailability ([8]; mouse, plasma, oral route, read-out: bioavailability): 4%; bioavailability ([8]; oral route): 4%; bioavailability ([8]; sublingual route): 44%; plasma concentration ([8]; sublingual, doses below 5 mg/kg, by 30 min after administration): negligible
